Measured values as given in ChEMBL document CHEMBL3045446, “In vitro antimicrobial and antimycobacterial activity of some chalcones and their derivatives” (2013).
In brackets after ≈: the same amount, converted by molar mass. Activity calls are given as the source filed them. No cut-off for these calls is given here.

How the values were obtained:
Proteus vulgaris [1] = test: Antimicrobial activity against Proteus vulgaris MTCC 1771 assessed as growth inhibition at 100 ug/ml after 24 hr by agar streak dilution method; type: functional, organism-based
Bacillus cereus [2] = test: Antimicrobial activity against Bacillus cereus MTCC 430 assessed as growth inhibition at 100 ug/ml after 24 hr by agar streak dilution method; type: functional, organism-based
Pseudomonas aeruginosa [3] = test: Antimicrobial activity against Pseudomonas aeruginosa MTCC 741 assessed as growth inhibition at 100 ug/ml after 24 hr by agar streak dilution method; type: functional, organism-based
[4] = tested on: Mycobacterium tuberculosis; test: Antituberculosis activity against Mycobacterium tuberculosis H37Rv assessed as growth inhibition after 12 to 28 days by L-J MIC method; type: functional; conditions: for MIC: Mycobacterium tuberculosis, H37Rv
Candida albicans [5] = test: Antimicrobial activity against Candida albicans MTCC 183 assessed as growth inhibition after 48 hr by agar streak dilution method; type: functional; conditions: MTCC 183, 48 h
Aspergillus clavatus [6] = test: Antimicrobial activity against Aspergillus clavatus MTCC 1323 assessed as growth inhibition after 48 hr by agar streak dilution method; type: functional; conditions: MTCC 1323, 48 h
Aspergillus fumigatus [7] = test: Antimicrobial activity against Aspergillus fumigatus MTCC 343 assessed as growth inhibition after 48 hr by agar streak dilution method; type: functional; conditions: MTCC 343, 48 h
Aspergillus niger [8] = test: Antimicrobial activity against Aspergillus niger MTCC 282 assessed as growth inhibition after 48 hr by agar streak dilution method; type: functional; conditions: MTCC 282, 48 h
Shigella flexneri [9] = test: Antimicrobial activity against Shigella flexneri MTCC1457 assessed as growth inhibition after 24 hr by agar streak dilution method; type: functional; conditions: MTCC1457, 24 h
Salmonella typhi [10] = test: Antimicrobial activity against Salmonella enterica subsp. enterica serovar Typhi MTCC 733 assessed as growth inhibition after 24 hr by agar streak dilution method; type: functional; conditions: MTCC 733, 24 h
Klebsiella pneumoniae [11] = test: Antimicrobial activity against Klebsiella pneumoniae MTCC 109 assessed as growth inhibition after 24 hr by agar streak dilution method; type: functional; conditions: MTCC 109, 24 h
Escherichia coli [12] = test: Antimicrobial activity against Escherichia coli MTCC 739 assessed as growth inhibition after 24 hr by agar streak dilution method; type: functional; conditions: MTCC 739, 24 h
Staphylococcus aureus [13] = test: Antimicrobial activity against Staphylococcus aureus MTCC 96 assessed as growth inhibition after 24 hr by agar streak dilution method; type: functional; conditions: MTCC 96, 24 h
Candida albicans [14] = test: Antimicrobial activity against Candida albicans MTCC 183 assessed as diameter of growth inhibition zone after 48 hr; type: functional
Aspergillus clavatus [15] = test: Antimicrobial activity against Aspergillus clavatus MTCC 1323 assessed as diameter of growth inhibition zone after 48 hr; type: functional
Aspergillus fumigatus [16] = test: Antimicrobial activity against Aspergillus fumigatus MTCC 343 assessed as diameter of growth inhibition zone after 48 hr; type: functional
Aspergillus niger [17] = test: Antimicrobial activity against Aspergillus niger MTCC 282 assessed as diameter of growth inhibition zone after 48 hr; type: functional
Shigella flexneri [18] = test: Antimicrobial activity against Shigella flexneri MTCC1457 assessed as diameter of growth inhibition zone after 24 hr; type: functional
Salmonella typhi [19] = test: Antimicrobial activity against Salmonella enterica subsp. enterica serovar Typhi MTCC 733 assessed as diameter of growth inhibition zone after 24 hr; type: functional
Klebsiella pneumoniae [20] = test: Antimicrobial activity against Klebsiella pneumoniae MTCC 109 assessed as diameter of growth inhibition zone after 24 hr; type: functional
Escherichia coli [21] = test: Antimicrobial activity against Escherichia coli MTCC 739 assessed as diameter of growth inhibition zone after 24 hr; type: functional
Staphylococcus aureus [22] = test: Antimicrobial activity against Staphylococcus aureus MTCC 96 assessed as diameter of growth inhibition zone after 24 hr; type: functional
Shigella flexneri [23] = test: Antimicrobial activity against Shigella flexneri MTCC1457 assessed as growth inhibition at 100 ug/ml after 24 hr by agar streak dilution method; type: functional, organism-based
Escherichia coli [24] = test: Antimicrobial activity against Escherichia coli MTCC 739 assessed as growth inhibition at 100 ug/ml after 24 hr by agar streak dilution method; type: functional, organism-based
Bacillus cereus [25] = test: Antimicrobial activity against Bacillus cereus MTCC 430 assessed as growth inhibition after 24 hr by agar streak dilution method; type: functional; conditions: MTCC 430, 24 h
Bacillus cereus [26] = test: Antimicrobial activity against Bacillus cereus MTCC 430 assessed as diameter of growth inhibition zone after 24 hr; type: functional
Staphylococcus aureus [27] = test: Antimicrobial activity against Staphylococcus aureus MTCC 96 assessed as growth inhibition at 100 ug/ml after 24 hr by agar streak dilution method; type: functional, organism-based
Proteus vulgaris [28] = test: Antimicrobial activity against Proteus vulgaris MTCC 1771 assessed as growth inhibition after 24 hr by agar streak dilution method; type: functional; conditions: MTCC 1771, 24 h
Pseudomonas aeruginosa [29] = test: Antimicrobial activity against Pseudomonas aeruginosa MTCC 741 assessed as growth inhibition after 24 hr by agar streak dilution method; type: functional; conditions: MTCC 741, 24 h
Proteus vulgaris [30] = test: Antimicrobial activity against Proteus vulgaris MTCC 1771 assessed as diameter of growth inhibition zone after 24 hr; type: functional
Pseudomonas aeruginosa [31] = test: Antimicrobial activity against Pseudomonas aeruginosa MTCC 741 assessed as diameter of growth inhibition zone after 24 hr; type: functional

Row | SMILES | growth inhibition (GI) (Proteus vulgaris [1]) | growth inhibition (GI) (Pseudomonas aeruginosa [3]) | growth inhibition (GI) [4] | MIC [4] | MIC (Candida albicans [5]) | MIC (Aspergillus clavatus [6]) | MIC (Aspergillus fumigatus [7]) | MIC (Aspergillus niger [8]) | MIC (Shigella flexneri [9]) | MIC (Salmonella typhi [10]) | MIC (Klebsiella pneumoniae [11]) | MIC (Escherichia coli [12]) | MIC (Staphylococcus aureus [13]) | diameter of the inhibition zone (DIZ) (Candida albicans [14]) | diameter of the inhibition zone (DIZ) (Aspergillus clavatus [15]) | diameter of the inhibition zone (DIZ) (Aspergillus fumigatus [16]) | diameter of the inhibition zone (DIZ) (Aspergillus niger [17]) | diameter of the inhibition zone (DIZ) (Shigella flexneri [18]) | diameter of the inhibition zone (DIZ) (Salmonella typhi [19]) | diameter of the inhibition zone (DIZ) (Klebsiella pneumoniae [20]) | also measured
1 | O=C(/C=C/c1ccc([N+](=O)[O-])cc1)c1ccc(Nc2cc(=O)oc3ccccc23)cc1 | inactive | inactive | 95% | 1000 µg/mL (≈ 2420 µM) | 100 µg/mL (≈ 242 µM) | 100 µg/mL (≈ 242 µM) | 100 µg/mL (≈ 242 µM) | 100 µg/mL (≈ 242 µM) | 100 µg/mL (≈ 242 µM) | 100 µg/mL (≈ 242 µM) | 100 µg/mL (≈ 242 µM) | 100 µg/mL (≈ 242 µM) | 100 µg/mL (≈ 242 µM) | 10 mm | 12 mm | <10 mm | 11 mm | 13 mm | 14 mm | 11 mm | growth inhibition (GI) (Bacillus cereus [2]): inactive; diameter of the inhibition zone (DIZ) (Escherichia coli [21]): <10 mm; diameter of the inhibition zone (DIZ) (Staphylococcus aureus [22]): <10 mm
2 | O=C(/C=C/c1ccccc1)c1ccc(Nc2cc(=O)oc3ccccc23)cc1 | inactive | inactive | 95% | 1000 µg/mL (≈ 2720 µM) | 100 µg/mL (≈ 272 µM) | 100 µg/mL (≈ 272 µM) | 100 µg/mL (≈ 272 µM) | 100 µg/mL (≈ 272 µM) | – | 100 µg/mL (≈ 272 µM) | 100 µg/mL (≈ 272 µM) | – | – | <10 mm | 15 mm | 12 mm | <10 mm | – | 11 mm | <10 mm | growth inhibition (GI) (Shigella flexneri [23]): inactive; growth inhibition (GI) (Escherichia coli [24]): inactive; MIC (Bacillus cereus [25]): 100 µg/mL (≈ 272 µM); diameter of the inhibition zone (DIZ) (Bacillus cereus [26]): <10 mm; growth inhibition (GI) (Staphylococcus aureus [27]): inactive
3 | CC(=O)N1N=C(c2ccc(Nc3cc(=O)oc4ccccc34)cc2)CC1c1ccccc1Br (stereo not given) | – | – | 98% | 200 µg/mL (≈ 398 µM) | 25 µg/mL (≈ 49.8 µM) | 100 µg/mL (≈ 199 µM) | 50 µg/mL (≈ 99.5 µM) | 100 µg/mL (≈ 199 µM) | 100 µg/mL (≈ 199 µM) | 100 µg/mL (≈ 199 µM) | 100 µg/mL (≈ 199 µM) | 100 µg/mL (≈ 199 µM) | 100 µg/mL (≈ 199 µM) | 21 mm | 14 mm | 17 mm | 15 mm | 14 mm | 15 mm | 16 mm | MIC (Proteus vulgaris [28]): 100 µg/mL (≈ 199 µM); MIC (Pseudomonas aeruginosa [29]): 100 µg/mL (≈ 199 µM); MIC (Bacillus cereus [25]): 100 µg/mL (≈ 199 µM); diameter of the inhibition zone (DIZ) (Proteus vulgaris [30]): 15 mm; diameter of the inhibition zone (DIZ) (Pseudomonas aeruginosa [31]): 12 mm; diameter of the inhibition zone (DIZ) (Escherichia coli [21]): 14 mm; diameter of the inhibition zone (DIZ) (Bacillus cereus [26]): 14 mm; diameter of the inhibition zone (DIZ) (Staphylococcus aureus [22]): 16 mm
